Activity calls are given as the source filed them.
Key:
[1] = molecular target: T1, Tyrosine-protein phosphatase non-receptor type 22 (Homo sapiens, UniProt Q9Y2R2); assay type: functional
T1 sequence (Q9Y2R2 whole entry): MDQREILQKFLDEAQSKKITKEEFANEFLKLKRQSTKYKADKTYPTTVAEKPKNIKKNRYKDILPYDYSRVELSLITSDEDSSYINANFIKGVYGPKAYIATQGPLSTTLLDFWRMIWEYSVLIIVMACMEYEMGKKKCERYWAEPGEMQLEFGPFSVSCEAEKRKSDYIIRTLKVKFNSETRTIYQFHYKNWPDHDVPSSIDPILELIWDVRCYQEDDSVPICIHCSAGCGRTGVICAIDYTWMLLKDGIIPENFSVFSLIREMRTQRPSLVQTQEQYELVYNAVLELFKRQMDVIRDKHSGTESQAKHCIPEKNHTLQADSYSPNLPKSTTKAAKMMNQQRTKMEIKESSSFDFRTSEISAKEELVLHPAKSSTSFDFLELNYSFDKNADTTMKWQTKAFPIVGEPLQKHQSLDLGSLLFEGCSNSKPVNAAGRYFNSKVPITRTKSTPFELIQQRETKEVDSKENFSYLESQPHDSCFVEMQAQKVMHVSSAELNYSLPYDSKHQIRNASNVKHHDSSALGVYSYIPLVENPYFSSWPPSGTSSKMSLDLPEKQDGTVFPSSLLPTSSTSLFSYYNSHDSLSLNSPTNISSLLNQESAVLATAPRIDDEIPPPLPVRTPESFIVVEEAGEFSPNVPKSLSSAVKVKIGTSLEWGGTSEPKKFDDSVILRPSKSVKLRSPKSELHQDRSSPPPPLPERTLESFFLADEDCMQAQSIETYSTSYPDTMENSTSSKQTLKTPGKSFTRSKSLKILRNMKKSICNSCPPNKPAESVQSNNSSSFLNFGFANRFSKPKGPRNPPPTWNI

[2] = molecular target: T1, Tyrosine-protein phosphatase non-receptor type 22; assay type: functional; remark: listed apart in the source
[3] = molecular target: T2, Tyrosine-protein phosphatase non-receptor type 7 (Homo sapiens, UniProt P35236); assay type: functional
T2 sequence (P35236 whole entry): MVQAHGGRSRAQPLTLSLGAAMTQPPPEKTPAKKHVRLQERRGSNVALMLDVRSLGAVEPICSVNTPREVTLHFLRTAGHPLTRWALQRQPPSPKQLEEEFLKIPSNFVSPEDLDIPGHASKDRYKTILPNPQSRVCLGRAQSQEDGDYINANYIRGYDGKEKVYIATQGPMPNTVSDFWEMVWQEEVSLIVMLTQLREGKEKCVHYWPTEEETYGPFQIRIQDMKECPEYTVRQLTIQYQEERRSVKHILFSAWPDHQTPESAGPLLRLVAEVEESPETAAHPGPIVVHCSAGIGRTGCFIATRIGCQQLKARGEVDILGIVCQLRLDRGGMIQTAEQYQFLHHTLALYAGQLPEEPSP

Coagulation factor XII = molecular target: T3, Coagulation factor XII (Homo sapiens, UniProt P00748); assay type: functional;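 also: activated factor XIIa alpha cleaving a fluorogenic AMC peptide substrate; inhibitor potency from loss of enzyme activity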
T3 sequence (P00748 whole entry): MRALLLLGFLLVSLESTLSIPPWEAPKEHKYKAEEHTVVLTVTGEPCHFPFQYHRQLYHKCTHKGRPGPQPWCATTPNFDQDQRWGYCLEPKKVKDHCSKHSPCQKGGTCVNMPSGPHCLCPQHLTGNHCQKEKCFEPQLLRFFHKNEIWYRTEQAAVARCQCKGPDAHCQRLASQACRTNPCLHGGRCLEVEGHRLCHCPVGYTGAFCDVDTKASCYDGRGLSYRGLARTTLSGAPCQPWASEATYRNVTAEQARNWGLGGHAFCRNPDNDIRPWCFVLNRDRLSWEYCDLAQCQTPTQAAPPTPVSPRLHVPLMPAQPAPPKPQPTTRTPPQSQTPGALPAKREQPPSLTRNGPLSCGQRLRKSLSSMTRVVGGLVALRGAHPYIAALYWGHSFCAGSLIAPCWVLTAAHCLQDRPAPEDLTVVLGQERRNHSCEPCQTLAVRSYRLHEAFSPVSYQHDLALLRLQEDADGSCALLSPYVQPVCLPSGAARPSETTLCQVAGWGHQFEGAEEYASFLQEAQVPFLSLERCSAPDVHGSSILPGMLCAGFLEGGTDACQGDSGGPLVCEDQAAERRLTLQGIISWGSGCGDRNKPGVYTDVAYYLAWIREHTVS

[4] = molecular target: Heat shock protein HSP 90-alpha (Homo sapiens, UniProt P07900); assay type: functional, organism-based
[5] = molecular target: T4, G-protein coupled receptor 55 (Homo sapiens, UniProt Q9Y2T6); assay: inhibition of LPI-stimulated GPR55 beta-arrestin translocation – imaging, U2OS, beta-arrestin-GFP, LPI agonist, primary screen (AID 2013); assay type: functional;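 also: antagonist potency measured as reduced agonist-driven arrestin aggregation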
[6] = protection from phage-mediated lysis, alamar blue read-out – E. coli UTI89, K1F phage, bacterial capsule biogenesis inhibitors (AID 488966); assay type: functional
[7] = molecular target: Polyadenylate-binding protein 1 (Homo sapiens, UniProt P11940); assay: PABP inhibition in translation initiation, SAR follow-up (AID 435018); assay type: functional
[8] = molecular target: Eukaryotic translation initiation factor 4H (Homo sapiens, UniProt Q15056); assay: inhibitors of translation initiation factor eIF4H – SAR follow-up (AID 435011); assay type: functional
[9] = molecular target: T5, Small ubiquitin-related modifier 1 (Homo sapiens, UniProt P63165); assay: SUMO1 protein-protein binding blockers, potency – biochemical, FRET, dose response (AID 624383); assay type: functional; settings: read-out: IC50_Mean
[10] = molecular target: T5, Small ubiquitin-related modifier 1; assay: SUMO1 protein interaction blockers, potency – biochemical, fluorescence polarization, uHTS hits, dose response (AID 624382); assay type: functional; settings: read-out: IC50_Mean
[11] = non-specific 3'UTR reporter inhibition in Clone20-Shn3RL – cell-based, Renilla luciferase, cherry-picked, counter-screen for Shn3 inhibitor project, dose response (AID 624133); assay type: functional
Beta-galactosidase = Beta-galactosidase (Escherichia coli, UniProt Q8VNN2); assay type: functional
INS1 = assay: INS-1E survival protection against cytokine death – cell-based, luminescence, retest, dose response (AID 449756); assay type: functional; settings: Rattus norvegicus;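 also: cell death triggered by IL-1 beta plus TNF-alpha plus IFN-gamma mixture; protective hits raise ATP signal compared with cytokine alone wells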
Mu-type opioid receptor = Mu-type opioid receptor (Homo sapiens, UniProt P35372); assay: HTS Image-Based Screen for Agonists of the MOR Receptor. [Related pubchem assays (depositor defined):AID1777, AID1785, AID1786, AID2133]; assay type: functional;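 also: imaging of beta-arrestin GFP recruitment into spots after receptor activation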
[12] = molecular target: T6, Kappa-type opioid receptor (Homo sapiens, UniProt P41145); assay type: functional
[13] = MIN6 cell viability loss – mouse insulinoma, cytotoxicity control, dose response (AID 2122); assay type: functional;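 also: confirmatory high-throughput counterscreen run to flag cytotoxic compounds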
[14] = decrease of insulin promoter-GFP reporter – imaging, high-content screening, mouse beta cells (AID 1628); assay type: functional; settings: MIN6
[15] = molecular target: T6, Kappa-type opioid receptor; assay type: functional; remark: listed apart in the source
[16] = loss of viability in HepG2 cells – cell-based, CellTiter-Glo, cherry-picked, cytotoxicity control for Shn3 inhibitor project, dose response (AID 624134); assay type: functional
[17] = molecular target: T7, Delta-type opioid receptor (Homo sapiens, UniProt P41143); assay: HTS Image-Based Screen for Antagonists of the DOR Receptor. [Related pubchem assays (depositor defined):AID1777, AID1785, AID1786, AID2133]; assay type: functional
Streptococcus = assay: GAS UMAA2166 growth inhibition – luminescence, BacTiterGlo, counter-screen for streptokinase expression inhibitor project, dose response (AID 1915); assay type: functional, organism-based;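 also: potency for reduction of bacterial viability or growth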
[18] = tested on: Streptococcus sp. 'group A'; assay: Streptococcus pyogenes SK(-)GAS viability under kanamycin – luminescence, BacTiterGlo, confirmation, counter-screen for streptokinase expression inhibitor project, dose response (AID 1900); assay type: functional, organism-based
[19] = reduction of Shn3 3'UTR-driven luciferase in osteoblasts – cell-based, Clone20 osteoblasts, firefly luciferase, cherry-picked, dose response (AID 624132); assay type: functional;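 also: firefly luciferase luminescence from reporter carrying the Shn3 3'UTR in osteoblasts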
[20] = molecular target: T7, Delta-type opioid receptor; assay: HTS Image-Based Screen for Agonists of the DOR Receptor. [Related pubchem assays (depositor defined):AID1777, AID1786, AID2133]; assay type: functional
[21] = M. tuberculosis H37Rv growth inhibitors, H37Rv strain (AID 1626); assay type: functional
Hexokinase HKDC1 = molecular target: T8, Hexokinase HKDC1 (Homo sapiens, UniProt Q2TB90); assay: inhibition of HKDC1 glucose phosphorylation – biochemical, W721R variant, dose response (AID 504729); assay type: functional
T8 sequence (Q2TB90 whole entry): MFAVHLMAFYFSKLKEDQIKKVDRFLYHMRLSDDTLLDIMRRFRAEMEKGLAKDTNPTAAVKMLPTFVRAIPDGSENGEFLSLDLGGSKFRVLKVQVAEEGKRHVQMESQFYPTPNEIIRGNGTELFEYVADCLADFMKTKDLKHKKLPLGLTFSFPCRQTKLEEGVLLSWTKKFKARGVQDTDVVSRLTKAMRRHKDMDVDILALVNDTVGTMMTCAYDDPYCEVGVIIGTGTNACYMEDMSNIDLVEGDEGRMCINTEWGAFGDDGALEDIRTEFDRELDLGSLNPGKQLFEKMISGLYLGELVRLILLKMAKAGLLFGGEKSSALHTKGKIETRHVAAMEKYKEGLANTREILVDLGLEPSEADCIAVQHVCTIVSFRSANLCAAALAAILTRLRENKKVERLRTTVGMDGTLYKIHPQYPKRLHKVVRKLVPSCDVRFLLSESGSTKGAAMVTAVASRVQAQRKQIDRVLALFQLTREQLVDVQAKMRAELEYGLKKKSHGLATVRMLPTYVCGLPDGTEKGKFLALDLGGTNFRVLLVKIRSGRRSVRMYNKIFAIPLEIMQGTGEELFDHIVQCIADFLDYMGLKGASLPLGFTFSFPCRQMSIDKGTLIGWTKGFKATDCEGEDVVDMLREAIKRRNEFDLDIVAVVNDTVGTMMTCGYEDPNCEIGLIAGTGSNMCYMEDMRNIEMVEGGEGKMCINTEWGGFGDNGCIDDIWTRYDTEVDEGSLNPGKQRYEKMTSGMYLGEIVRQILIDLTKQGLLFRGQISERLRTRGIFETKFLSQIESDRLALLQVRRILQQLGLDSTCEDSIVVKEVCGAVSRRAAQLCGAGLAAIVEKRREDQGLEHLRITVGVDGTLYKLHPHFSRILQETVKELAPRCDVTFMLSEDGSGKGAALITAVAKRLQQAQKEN

BJ [22] = assay: cells; assay type: functional, cell-based; settings: Homo sapiens
BJ [23] = assay: BJ-TERT fibroblast viability loss – cell-based, RAS-independent, luminescence, dose response (AID 1933); assay type: functional; settings: Homo sapiens
BJ [24] = assay: BJ-TERT-LT-ST fibroblast viability loss – cell-based, RAS-independent, luminescence, dose response (AID 1935); assay type: functional; settings: Homo sapiens;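 also: BJ fibroblasts immortalized with TERT plus LT and ST oncogenes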
[25] = DRD fibroblast viability loss – cell-based, non-viral oncogenic, luminescence, dose response (AID 1934); assay type: functional; settings: Homo sapiens
[26] = molecular target: Neurotensin receptor type 1 (Homo sapiens, UniProt P30989); assay type: functional;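 also: Image-based confirmatory dose-response assay measuring agonist activity at NTR1; NTR1-expressing U2OS osteosarcoma cells imaged for beta-arrestin GFP spot formation; agonist potency where compounds increase beta-arrestin recruitment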
Vero [27] = assay: cells; assay type: functional; settings: Chlorocebus sabaeus
Vero [28] = assay: cells; assay type: functional, cell-based; settings: Chlorocebus sabaeus
[29] = molecular target: T4, G-protein coupled receptor 55; assay: selective activators of receptor GPR55 – imaging, U2OS cells, beta-arrestin-GFP redistribution, primary screen (AID 1961); assay type: functional
X-box-binding protein 1 = X-box-binding protein 1 (Homo sapiens, UniProt P17861); assay type: functional, Cricetulus griseus;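 also: confirmatory dose-response counter-screen serving a CHOP assay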
[30] = molecular target: Induced myeloid leukemia cell differentiation protein Mcl-1 (Homo sapiens, UniProt Q07820); assay type: functional
Chain of Induced myeloid leukemia cell differentiation protein Mcl-1 (Q07820 whole entry): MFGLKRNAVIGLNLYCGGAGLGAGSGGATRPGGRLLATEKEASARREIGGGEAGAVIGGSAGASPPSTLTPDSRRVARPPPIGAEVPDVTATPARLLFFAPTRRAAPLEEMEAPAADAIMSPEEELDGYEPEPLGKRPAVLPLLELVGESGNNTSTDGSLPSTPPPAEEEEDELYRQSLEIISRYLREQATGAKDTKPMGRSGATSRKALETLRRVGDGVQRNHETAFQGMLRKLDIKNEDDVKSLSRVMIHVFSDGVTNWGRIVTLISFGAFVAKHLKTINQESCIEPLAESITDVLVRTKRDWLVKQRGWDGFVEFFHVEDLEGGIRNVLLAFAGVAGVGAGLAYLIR

T7 sequence (P41143 whole entry): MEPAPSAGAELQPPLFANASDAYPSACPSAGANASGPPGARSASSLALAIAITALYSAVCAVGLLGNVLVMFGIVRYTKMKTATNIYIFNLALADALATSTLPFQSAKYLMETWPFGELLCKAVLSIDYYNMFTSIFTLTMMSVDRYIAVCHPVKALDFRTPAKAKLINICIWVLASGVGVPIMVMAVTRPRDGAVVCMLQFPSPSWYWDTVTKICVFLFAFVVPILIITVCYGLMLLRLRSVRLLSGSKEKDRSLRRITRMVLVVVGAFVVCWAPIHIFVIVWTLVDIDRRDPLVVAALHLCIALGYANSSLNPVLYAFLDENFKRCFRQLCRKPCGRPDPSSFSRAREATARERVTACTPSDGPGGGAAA
Chain of Polyadenylate-binding protein 1 (P11940 whole entry): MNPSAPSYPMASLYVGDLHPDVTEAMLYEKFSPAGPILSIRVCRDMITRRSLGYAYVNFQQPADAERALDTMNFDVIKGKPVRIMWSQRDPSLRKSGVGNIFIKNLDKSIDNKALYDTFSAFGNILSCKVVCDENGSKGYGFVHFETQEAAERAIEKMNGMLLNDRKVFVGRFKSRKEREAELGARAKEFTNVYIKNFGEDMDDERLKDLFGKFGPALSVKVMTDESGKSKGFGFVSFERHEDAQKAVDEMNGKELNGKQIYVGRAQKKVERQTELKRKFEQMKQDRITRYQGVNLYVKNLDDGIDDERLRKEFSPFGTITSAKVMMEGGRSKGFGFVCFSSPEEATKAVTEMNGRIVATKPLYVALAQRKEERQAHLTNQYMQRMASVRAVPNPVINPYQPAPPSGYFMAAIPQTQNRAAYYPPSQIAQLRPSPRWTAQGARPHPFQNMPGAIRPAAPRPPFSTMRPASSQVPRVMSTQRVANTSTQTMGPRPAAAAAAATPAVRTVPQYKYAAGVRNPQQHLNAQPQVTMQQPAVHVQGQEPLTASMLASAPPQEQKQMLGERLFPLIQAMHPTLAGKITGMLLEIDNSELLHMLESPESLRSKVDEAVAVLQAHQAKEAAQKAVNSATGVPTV
T5 sequence (P63165 whole entry): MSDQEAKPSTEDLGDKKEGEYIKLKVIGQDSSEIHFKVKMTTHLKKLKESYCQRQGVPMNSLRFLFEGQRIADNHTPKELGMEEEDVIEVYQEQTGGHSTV
T6 sequence (P41145 whole entry): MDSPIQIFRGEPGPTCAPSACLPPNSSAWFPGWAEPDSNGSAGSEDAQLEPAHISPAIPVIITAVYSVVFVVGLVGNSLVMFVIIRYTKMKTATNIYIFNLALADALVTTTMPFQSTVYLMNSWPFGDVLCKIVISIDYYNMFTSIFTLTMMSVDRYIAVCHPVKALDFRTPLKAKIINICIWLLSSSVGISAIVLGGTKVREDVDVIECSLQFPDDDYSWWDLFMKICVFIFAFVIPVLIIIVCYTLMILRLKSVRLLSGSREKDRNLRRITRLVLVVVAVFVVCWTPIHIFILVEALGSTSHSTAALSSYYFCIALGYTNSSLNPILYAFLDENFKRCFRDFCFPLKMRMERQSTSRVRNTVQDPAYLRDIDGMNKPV
T4 sequence (Q9Y2T6 whole entry): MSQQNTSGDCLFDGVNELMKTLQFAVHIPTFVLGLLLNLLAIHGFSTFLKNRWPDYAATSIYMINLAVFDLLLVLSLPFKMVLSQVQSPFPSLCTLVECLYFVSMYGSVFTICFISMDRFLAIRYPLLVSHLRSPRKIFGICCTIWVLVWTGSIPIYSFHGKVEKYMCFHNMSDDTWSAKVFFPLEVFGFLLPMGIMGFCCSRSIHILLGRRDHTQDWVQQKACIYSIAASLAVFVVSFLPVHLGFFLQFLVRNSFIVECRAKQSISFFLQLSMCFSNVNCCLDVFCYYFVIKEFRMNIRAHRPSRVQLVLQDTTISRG
Chain of Beta-galactosidase (Q8VNN2 whole entry): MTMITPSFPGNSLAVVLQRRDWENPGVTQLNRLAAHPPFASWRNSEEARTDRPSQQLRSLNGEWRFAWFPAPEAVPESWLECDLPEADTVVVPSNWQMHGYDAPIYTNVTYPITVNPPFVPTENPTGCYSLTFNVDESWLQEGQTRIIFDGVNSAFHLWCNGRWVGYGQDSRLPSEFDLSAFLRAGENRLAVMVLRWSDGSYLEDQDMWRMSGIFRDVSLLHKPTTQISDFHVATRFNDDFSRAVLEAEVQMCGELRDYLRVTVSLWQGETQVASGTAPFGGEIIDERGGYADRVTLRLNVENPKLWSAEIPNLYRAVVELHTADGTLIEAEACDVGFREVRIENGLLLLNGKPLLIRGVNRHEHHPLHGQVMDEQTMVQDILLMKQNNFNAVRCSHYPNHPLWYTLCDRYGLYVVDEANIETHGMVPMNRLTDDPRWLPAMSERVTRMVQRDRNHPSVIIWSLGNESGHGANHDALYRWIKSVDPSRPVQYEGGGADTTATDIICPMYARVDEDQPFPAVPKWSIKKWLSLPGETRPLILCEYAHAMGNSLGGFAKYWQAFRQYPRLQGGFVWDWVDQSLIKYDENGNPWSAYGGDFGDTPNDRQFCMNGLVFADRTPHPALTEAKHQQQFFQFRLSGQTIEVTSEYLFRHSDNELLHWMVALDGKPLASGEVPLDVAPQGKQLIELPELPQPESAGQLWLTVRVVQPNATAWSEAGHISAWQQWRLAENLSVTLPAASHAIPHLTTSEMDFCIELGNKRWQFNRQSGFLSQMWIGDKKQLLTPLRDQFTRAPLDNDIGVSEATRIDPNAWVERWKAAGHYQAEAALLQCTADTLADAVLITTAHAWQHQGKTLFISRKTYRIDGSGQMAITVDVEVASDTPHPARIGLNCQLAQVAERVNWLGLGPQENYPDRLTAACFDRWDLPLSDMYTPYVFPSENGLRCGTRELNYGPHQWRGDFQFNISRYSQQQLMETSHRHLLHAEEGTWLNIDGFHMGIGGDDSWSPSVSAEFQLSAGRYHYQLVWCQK
Chain of X-box-binding protein 1 (P17861 whole entry): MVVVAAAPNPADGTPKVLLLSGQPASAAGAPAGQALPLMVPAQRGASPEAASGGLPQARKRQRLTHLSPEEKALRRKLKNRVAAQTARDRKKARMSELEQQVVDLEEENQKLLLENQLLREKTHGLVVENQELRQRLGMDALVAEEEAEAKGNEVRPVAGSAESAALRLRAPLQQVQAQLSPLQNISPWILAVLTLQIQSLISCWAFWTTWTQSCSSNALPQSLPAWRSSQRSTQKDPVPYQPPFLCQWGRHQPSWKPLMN
Chain of Mu-type opioid receptor (P35372 whole entry): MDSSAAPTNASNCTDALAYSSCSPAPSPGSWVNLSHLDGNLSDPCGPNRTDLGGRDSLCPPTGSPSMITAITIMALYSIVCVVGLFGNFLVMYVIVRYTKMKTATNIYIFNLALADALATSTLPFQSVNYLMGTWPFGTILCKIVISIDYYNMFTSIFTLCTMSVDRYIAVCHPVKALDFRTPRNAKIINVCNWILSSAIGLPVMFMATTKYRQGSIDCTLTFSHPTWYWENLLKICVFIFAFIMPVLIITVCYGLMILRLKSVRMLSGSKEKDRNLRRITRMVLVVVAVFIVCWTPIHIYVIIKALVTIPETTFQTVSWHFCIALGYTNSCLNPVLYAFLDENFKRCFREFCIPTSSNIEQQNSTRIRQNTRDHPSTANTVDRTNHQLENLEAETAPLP
Chain of Neurotensin receptor type 1 (P30989 whole entry): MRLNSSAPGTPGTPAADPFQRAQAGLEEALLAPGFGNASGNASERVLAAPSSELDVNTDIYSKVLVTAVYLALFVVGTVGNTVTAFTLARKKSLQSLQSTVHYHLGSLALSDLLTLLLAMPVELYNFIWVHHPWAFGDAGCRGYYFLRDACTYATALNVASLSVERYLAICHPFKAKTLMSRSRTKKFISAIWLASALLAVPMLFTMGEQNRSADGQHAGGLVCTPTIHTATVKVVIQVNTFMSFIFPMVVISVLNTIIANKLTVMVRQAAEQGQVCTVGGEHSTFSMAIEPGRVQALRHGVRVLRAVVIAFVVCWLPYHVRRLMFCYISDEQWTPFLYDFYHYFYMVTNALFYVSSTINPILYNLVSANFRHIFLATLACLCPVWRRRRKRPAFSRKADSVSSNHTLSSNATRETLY

COc1ccc2c(-c3ccccc3)cc(N3CCOCC3)nc2c1
IC50 [1]: > 79.4 µM (inactive)
IC50 [2]: > 79.4 µM (inactive)
IC50 [3]: > 79.4 µM (inactive)

CNC(=O)COC(=O)c1cc(-c2ccco2)nc2ccccc12
IC50 (Coagulation factor XII): > 50 µM (inactive)

CC(C)(C)C(=O)C(Cl)C(=O)Nc1ccccc1 (centres undefined)
AC50 [4]: 1.05 µM (active)
IC50 [5]: 0.696 µM (active)

Cc1ccc(C(=O)Oc2ccc(/C=C3\C(=N)N4N=C(N5CCOCC5)SC4=NC3=O)cc2)cc1
IC50 [6]: > 75 µM (active)

COc1ccc([N+](=O)[O-])cc1NC(=O)COC(=O)c1ccc(NC(N)=O)cc1
IC50 [7]: > 100 µM (inactive)
IC50 [8]: > 100 µM (inactive)

CC(=O)c1ccc2c(c1)C1C(Cl)C(Sc3ccccc3[N+](=O)[O-])CC1C(C(=O)O)N2 (centres undefined)
IC50 [9]: 13.2 µM (active)
IC50 [1]: 32 µM (active)
IC50 [2]: 57.9 µM (active)
IC50 [3]: 58.2 µM (active)
IC50 [10]: > 66.6 µM (inactive)

CCc1nnc(NC(=O)c2cccc(C(=O)Nc3nnc(CC)s3)n2)s1
AC50 [11]: 0.573 µM (active)
EC50 (Beta-galactosidase): > 31.5 µM (inactive)
AC50 (INS1): 0.678 µM (active)
EC50 (Mu-type opioid receptor): > 32 µM (inactive)
IC50 [12]: > 32 µM
IC50 [13]: 0.568 µM (active)
IC50 [14]: 0.666 µM (active)
IC50 [15]: 5 µM (inactive)
AC50 [16]: 5.56 µM (active)
IC50 [17]: > 32 µM (inactive)
EC50 (Streptococcus): 3.5 µM (active)
EC50 [18]: 0.829 µM (active)
AC50 [19]: 1.45 µM (active)
EC50 [20]: > 32 µM (inactive)
IC50 [21]: 100 µM (active)

Nc1c(Br)cc2c3c(cccc13)-c1ccccc1-2
IC50 (Hexokinase HKDC1): 4.58 µM (active)

CCN(CC)c1ccc(C=C2C(=O)NC(=S)NC2=O)cc1
EC50 (BJ [22]): 15.9 µM (active)
EC50 (BJ [23]): 13.5 µM (active)
EC50 (BJ [24]): > 75 µM (inconclusive)
EC50 [25]: 10.8 µM (active)
EC50 [26]: 3.91 µM (active)
CC50 (Vero [27]): 13.9 µM (active)
IC50 (Vero [28]): > 25 µM (active)

COc1ccc(-c2n(CC(=O)OC3CC(C)CCC3C(C)C)c3ccccc3[n+]2C)cc1 (centres undefined)
EC50 [29]: > 32 µM (inactive)

Cc1ccc(NC(=O)C(=O)NCC2OCCc3ccccc32)cc1 (centres undefined)
Absolute IC50 (XBP1) (X-box-binding protein 1): 10 µM

CCc1ccc2nc3sc(C(=O)Nc4nnc(CC)s4)c(N)c3cc2c1
IC50 [6]: > 150 µM (active)
IC50 [30]: 4.39 µM (not active)

CCOC(=O)CNC(=O)Cn1cnc2c(nnn2-c2cccc(Cl)c2)c1=O
IC50 (Coagulation factor XII): > 50 µM (inactive)

O=C(CSc1ccc(-c2ccco2)nn1)N1CCCCCC1
IC50 [7]: > 100 µM (inactive)
IC50 [8]: 69.4 µM (active)

— ChEMBL document CHEMBL1201862, “PubChem BioAssay data set” (2004)
